Data published in the NIST ThermoML archive (doi:10.1016/j.jct.2015.03.001).
± gives the expanded uncertainty stated by the source.

Tests used:
[1] = refractive index (Na D-line) (dimensionless); xn = mol fraction of the nth substance listed; conditions: 99 kPa, Liquid, Abbe refractometer, x1 = 1
[2] = relative permittivity at various frequencies (dimensionless); xn = mol fraction of the nth substance listed; conditions: 99 kPa, Liquid, Frequency=2 MHz, Parallel plate capacitor, x1 = 1
[3] = relative permittivity at various frequencies (dimensionless); conditions: 99 kPa, Liquid, Frequency=2 MHz, Parallel plate capacitor
[4] = refractive index (Na D-line) (dimensionless); conditions: 298.15 K; 101.33 kPa; Liquid; Abbe refractometer

With `CCCCCC` [hexane] + CCC(C)Cl the refractive index ([1]; 283.15 K) was 1.3805 ± 0.00031, the refractive index ([1]; 298.15 K) was 1.37223 ± 0.00031 and the refractive index ([1]; 313.15 K) was 1.36391 ± 0.00031. For the same compound, the relative permittivity ([2]; 283.15 K) was 1.905 ± 0.019, the relative permittivity ([2]; 298.15 K) was 1.892 ± 0.019 and the relative permittivity ([2]; 313.15 K) was 1.873 ± 0.019.
Work on `CCCCCCC` [heptane] yielded a relative permittivity ([3]; 283.15 K) of 1.943 ± 0.019, a relative permittivity ([3]; 298.15 K) of 1.923 ± 0.019 and a relative permittivity ([3]; 313.15 K) of 1.902 ± 0.019.
For `CCCCCCC` [heptane] + CC(C)(C)Cl, the refractive index ([1]; 283.15 K) was 1.3929 ± 0.00031, the refractive index ([1]; 298.15 K) was 1.3852 ± 0.00031 and the refractive index ([1]; 313.15 K) was 1.37735 ± 0.00031. It also gave a relative permittivity ([2]; 283.15 K) of 1.943 ± 0.019, a relative permittivity ([2]; 298.15 K) of 1.923 ± 0.019 and a relative permittivity ([2]; 313.15 K) of 1.902 ± 0.019.
`CCCCCCC` [heptane] + CC(C)CCl showed a refractive index ([1]; 283.15 K) of 1.3929 ± 0.00031, a refractive index ([1]; 298.15 K) of 1.3852 ± 0.00031 and a refractive index ([1]; 313.15 K) of 1.37735 ± 0.00031. The relative permittivity ([2]; 283.15 K) was 1.943 ± 0.019, the relative permittivity ([2]; 298.15 K) was 1.923 ± 0.019 and the relative permittivity ([2]; 313.15 K) was 1.902 ± 0.019.
Compound `CC(C)CCl` [1-chloro-2-methylpropane] has a relative permittivity ([3]; 283.15 K) of 7.472 ± 0.075, a relative permittivity ([3]; 298.15 K) of 7.074 ± 0.071 and a relative permittivity ([3]; 313.15 K) of 6.657 ± 0.067.
In the case of `CC(C)(C)Cl` [2-chloro-2-methylpropane], the relative permittivity ([3]; 283.15 K) is reported as 10.429 ± 0.1, the relative permittivity ([3]; 298.15 K) is reported as 9.67 ± 0.097 and the relative permittivity ([3]; 313.15 K) is reported as 8.952 ± 0.09.
Compound `CCCCCC` [hexane] + CC(C)(C)Cl has a refractive index ([1]; 283.15 K) of 1.3805 ± 0.00031, a refractive index ([1]; 298.15 K) of 1.37223 ± 0.00031 and a refractive index ([1]; 313.15 K) of 1.36391 ± 0.00031. It also gave a relative permittivity ([2]; 283.15 K) of 1.905 ± 0.019, a relative permittivity ([2]; 298.15 K) of 1.892 ± 0.019 and a relative permittivity ([2]; 313.15 K) of 1.873 ± 0.019.
`CCCCCCC` [heptane] + CCC(C)Cl gave a refractive index ([1]; 283.15 K) of 1.3929 ± 0.00031, a refractive index ([1]; 298.15 K) of 1.3852 ± 0.00031 and a refractive index ([1]; 313.15 K) of 1.37735 ± 0.00031. The relative permittivity ([2]; 283.15 K) was 1.943 ± 0.019, the relative permittivity ([2]; 298.15 K) was 1.923 ± 0.019 and the relative permittivity ([2]; 313.15 K) was 1.902 ± 0.019.
`CCCCCC` [hexane] + CCCCCl gave a refractive index ([1]; 283.15 K) of 1.3805 ± 0.00031, a refractive index ([1]; 298.15 K) of 1.37223 ± 0.00031 and a refractive index ([1]; 313.15 K) of 1.36391 ± 0.00031. For the same compound, the relative permittivity ([2]; 283.15 K) was 1.905 ± 0.019, the relative permittivity ([2]; 298.15 K) was 1.892 ± 0.019 and the relative permittivity ([2]; 313.15 K) was 1.873 ± 0.019.
With `CCC(C)Cl` (configuration not stated) [2-chlorobutane] the relative permittivity ([3]; 283.15 K) was 9.323 ± 0.093, the relative permittivity ([3]; 298.15 K) was 8.652 ± 0.087 and the relative permittivity ([3]; 313.15 K) was 8.07 ± 0.081.
Compound `CCCCCCC` [heptane] + CCCCCl has a refractive index ([1]; 283.15 K) of 1.3929 ± 0.00031, a refractive index ([1]; 298.15 K) of 1.3852 ± 0.00031 and a refractive index ([1]; 313.15 K) of 1.37735 ± 0.00031. For the same compound, the relative permittivity ([2]; 283.15 K) was 1.943 ± 0.019, the relative permittivity ([2]; 298.15 K) was 1.923 ± 0.019 and the relative permittivity ([2]; 313.15 K) was 1.902 ± 0.019.
Compound `CCCCCl` [1-chlorobutane] has a relative permittivity ([3]; 283.15 K) of 7.552 ± 0.076, a relative permittivity ([3]; 298.15 K) of 7.157 ± 0.072 and a relative permittivity ([3]; 313.15 K) of 6.757 ± 0.068.
With `CCCCCC` [hexane] the relative permittivity ([3]; 283.15 K) was 1.905 ± 0.019, the relative permittivity ([3]; 298.15 K) was 1.892 ± 0.019 and the relative permittivity ([3]; 313.15 K) was 1.873 ± 0.019. The refractive index [4] was 1.37223 ± 0.00031.
`CCCCCC` [hexane] + CC(C)CCl showed a refractive index ([1]; 283.15 K) of 1.3805 ± 0.00031, a refractive index ([1]; 298.15 K) of 1.37223 ± 0.00031 and a refractive index ([1]; 313.15 K) of 1.36391 ± 0.00031. For the same compound, the relative permittivity ([2]; 283.15 K) was 1.905 ± 0.019, the relative permittivity ([2]; 298.15 K) was 1.892 ± 0.019 and the relative permittivity ([2]; 313.15 K) was 1.873 ± 0.019.
